According to patent US20240018120A1, “MAGL INHIBITORS” (H. LUNDBECK A/S, priority 2020, published 2024):

Legend:
[1] = system: cryopreserved human hepatocytes; experiment: In vitro human hepatocyte stability; assay type: in vitro ADME; details: human hepatocytes 0.5×10^6 cells/mL, 1 μM
Protocol: The metabolic stability of test articles (1 μM) in commercially sourced, pooled donor, cryopreserved human hepatocytes (0.5×10^6 cells/mL) was determined in duplicate. The CLint reactions (250 μL) were initiated by addition of test compound. Aliquots (25 μL) were taken at 0, 15, 30, 45, 60, 90, 120 and 240 minutes and then protein crashed with ice-cold acetonitrile containing internal standard then centrifuged (3220 g for 25 minutes). Supernatant was used for LC-MS/MS analysis. The in vitro half-life (in vitro t½) was determined from the slope value: in vitro t1/2=−0.693/k. Conversion of the in vitro t1/2 (in min) into the scale-up unbound intrinsic clearance (Scaled-up unbound CLint, in mL/min/kg) was done using the following equation (mean of duplicate determinations), with data shown in Table 5: Scaled-up unbound CLint=kV/N×scaling factor. V=incubation volume (0.25 mL); N=number of hepatocytes per well ([…]). Scaling factors for in vivo intrinsic clearance prediction are listed below: […]

[2] = biological target: T1, MAGL (Homo sapiens, UniProt Q99685); experiment: In vitro competitive activity-based protein profiling, PC3 human cell membrane proteomes; assay type: biochemical; parameters: endogenous in cells; host or cells: PC3 human cells (membrane proteome); details: human PC3 membrane proteome; for inhibition at 1 µM: read-out: MAGL % inh. 1 μM (human PC3)
T1 sequence (Q99685 1-303): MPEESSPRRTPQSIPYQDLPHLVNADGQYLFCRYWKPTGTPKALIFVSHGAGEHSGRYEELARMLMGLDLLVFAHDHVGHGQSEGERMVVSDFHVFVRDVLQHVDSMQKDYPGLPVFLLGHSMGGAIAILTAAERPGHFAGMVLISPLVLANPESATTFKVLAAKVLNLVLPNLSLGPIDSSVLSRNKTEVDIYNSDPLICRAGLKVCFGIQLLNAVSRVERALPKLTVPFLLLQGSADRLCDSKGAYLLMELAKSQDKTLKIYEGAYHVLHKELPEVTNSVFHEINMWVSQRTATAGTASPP
Outline: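 Competitive ABPP in PC3 membrane proteome (2.0 mg/mL protein): inhibitors preincubated 30 min at 37° C, then JW912-Bodipy probe added for 30 min at room temperature. MAGL band fluorescence after SDS-PAGE normalised to DMSO; IC50 from 4-parameter sigmoidal fit.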

[3] = biological target: T1, MAGL; experiment: In vitro competitive substrate hydrolysis enzyme activity assay (pNPA), HEK293 cell lysates; assay type: biochemical; parameters: expressed in transfected cells; host or cells: HEK293; details: HEK293 lysate
Outline: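 Lysates of HEK293 cells expressing human MAGL (~1.2 μg protein) preincubated 30 min at 25° C with inhibitor in 50 mM HEPES pH 7.0, 200 mM KCl, 1 mM EDTA. pNPA substrate then added (2× stock 2.5 mM), and A405 followed for 20 min at 25° C. Rates normalized to DMSO, and IC50 from 4-parameter fit.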

| Compound | Scaled-up unbound CLint [1] [mL/min/kg] | IC50 [2] [µM] | IC50 [3] [µM] | inhibition at 1 µM [2] [%] |
| --- | --- | --- | --- | --- |
| CP(C)(=O)c1ccc(NC(=O)C2CC23CCN(C(=O)OC(C(F)(F)F)C(F)(F)F)CC3)cn1 (single isomer, unassigned) [Example 20, 1,1,1,3,3,3-Hexafluoropropan-2-yl (R or S)-1-((6-(dimethylphosphoryl)pyridin-3-yl)carbamoyl)-6-azaspiro[2.5]octane-6-carboxylate] | 0.85 | 0.029 | – | – |
| O=C(Nc1cncc(F)c1)C1CC12CCN(C(=O)OC(C(F)(F)F)C(F)(F)F)CC2 (single isomer, unassigned) [Example 40, 1,1,1,3,3,3-hexafluoropropan-2-yl (R or S)-1-((5-fluoropyridin-3-yl)carbamoyl)-6-azaspiro[2.5]octane-6-carboxylate] | 43.25 | 0.0027 | 0.00343 | – |
| O=C(Nc1ccncc1)C1CC12CCN(C(=O)OC(C(F)(F)F)C(F)(F)F)CC2 (single isomer, unassigned) [Example 24, 1,1,1,3,3,3-Hexafluoropropan-2-yl (R or S)-1-(pyridin-4-ylcarbamoyl)-6-azaspiro[2.5]octane-6-carboxylate] | 11.9 | 0.0024 | – | – |
| O=C(Nc1cccnc1)[C@H]1CC12CCN(C(=O)OC(C(F)(F)F)C(F)(F)F)CC2 (single isomer, unassigned) [Example 2] | 34.8 | 0.002 | 0.00289 | 100 |
| CS(=O)(=O)Nc1ccc(NC(=O)C2CC23CCN(C(=O)OC(C(F)(F)F)C(F)(F)F)CC3)cn1 (single isomer, unassigned) [Example 181, 1,1,1,3,3,3-hexafluoropropan-2-yl (R or S)-1-((6-(methylsulfonamido)pyridin-3-yl)carbamoyl)-6-azaspiro[2.5]octane-6-carboxylate] | 1.94 | 0.0305 | – | – |
| Cn1ccc(NC(=O)C2CC23CCN(C(=O)OC(C(F)(F)F)C(F)(F)F)CC3)n1 (single isomer, unassigned) [Example 127, 1,1,1,3,3,3-hexafluoropropan-2-yl (R or S)-1-((1-methyl-1H-pyrazol-3-yl)carbamoyl)-6-azaspiro[2.5]octane-6-carboxylate] | 9.51 | 0.019 | – | – |
| O=C(NCC1CCOCC1)[C@H]1CC12CCN(C(=O)OC(C(F)(F)F)C(F)(F)F)CC2 (single isomer, unassigned) [Example 117] | 20.55 | 0.0047 | – | – |
| O=C(Nc1ccc(-n2cccn2)nc1)C1CC12CCN(C(=O)OC(C(F)(F)F)C(F)(F)F)CC2 (single isomer, unassigned) [Example 29, 1,1,1,3,3,3-Hexafluoropropan-2-yl (R or S)-1-((6-(1H-pyrazol-1-yl)pyridin-3-yl)carbamoyl)-6-azaspiro[2.5]octane-6-carboxylate] | 32.74 | 0.003 | – | – |
| O=C(Nc1cncnc1)C1CC12CCN(C(=O)OC(C(F)(F)F)C(F)(F)F)CC2 (single isomer, unassigned) [Example 96, 1,1,1,3,3,3-hexafluoropropan-2-yl (R or S)-1-(pyrimidin-5-ylcarbamoyl)-6-azaspiro[2.5]octane-6-carboxylate] | 17.09 | 0.0193 | 0.0489 | 100 |
| Cn1nccc1NC(=O)C1CC12CCN(C(=O)OC(C(F)(F)F)C(F)(F)F)CC2 (single isomer, unassigned) [Example 135, 1,1,1,3,3,3-hexafluoropropan-2-yl (R or S)-1-((1-methyl-1H-pyrazol-5-yl)carbamoyl)-6-azaspiro[2.5]octane-6-carboxylate] | 16.79 | 0.015 | – | – |
| O=C(NCc1ccccc1)[C@H]1CC12CCN(C(=O)OC(C(F)(F)F)C(F)(F)F)CC2 (single isomer, unassigned) [Example 150] | 88.79 | 0.0031 | – | – |
| CC1(NC(=O)C2CC23CCN(C(=O)OC(C(F)(F)F)C(F)(F)F)CC3)CCOCC1 (single isomer, unassigned) [Example 132, 1,1,1,3,3,3-hexafluoropropan-2-yl (R or S)-1-((4-methyltetrahydro-2H-pyran-4-yl)carbamoyl)-6-azaspiro[2.5]octane-6-carboxylate] | 44.18 | 0.027 | – | – |
| CC1(CNC(=O)C2CC23CCN(C(=O)OC(C(F)(F)F)C(F)(F)F)CC3)CCOCC1 (single isomer, unassigned) [Example 168, 1,1,1,3,3,3-hexafluoropropan-2-yl (R or S)-1-(((4-methyltetrahydro-2H-pyran-4-yl)methyl)carbamoyl)-6-azaspiro[2.5]octane-6-carboxylate] | 61.36 | 0.0074 | – | – |
| O=C(Nc1nccs1)C1CC12CCN(C(=O)OC(C(F)(F)F)C(F)(F)F)CC2 (single isomer, unassigned) [Example 138, 1,1,1,3,3,3-hexafluoropropan-2-yl (R or S)-1-(thiazol-2-ylcarbamoyl)-6-azaspiro[2.5]octane-6-carboxylate] | 40.48 | 0.001 | – | – |
| Cc1cnc(NC(=O)C2CC23CCN(C(=O)OC(C(F)(F)F)C(F)(F)F)CC3)cn1 (single isomer, unassigned) [Example 112, 1,1,1,3,3,3-hexafluoropropan-2-yl (R or S)-1-((5-methylpyrazin-2-yl)carbamoyl)-6-azaspiro[2.5]octane-6-carboxylate] | 9.59 | 0.0042 | – | – |
| O=C(Nc1cncs1)C1CC12CCN(C(=O)OC(C(F)(F)F)C(F)(F)F)CC2 (single isomer, unassigned) [Example 129, 1,1,1,3,3,3-hexafluoropropan-2-yl (R or S)-1-(thiazol-5-ylcarbamoyl)-6-azaspiro[2.5]octane-6-carboxylate] | 53.56 | – | – | – |
| O=C(NC(=O)C1CC12CCN(C(=O)OC(C(F)(F)F)C(F)(F)F)CC2)c1ccccc1 (single isomer, unassigned) [Example 93, 1,1,1,3,3,3-hexafluoropropan-2-yl (R or S)-1-(benzoylcarbamoyl)-6-azaspiro[2.5]octane-6-carboxylate] | – | – | 0.00284 | 100 |
| CN(C(=O)C1CC12CCN(C(=O)OC(C(F)(F)F)C(F)(F)F)CC2)c1cccnc1 (single isomer, unassigned) [Example 43, 1,1,1,3,3,3-hexafluoropropan-2-yl (R or S)-1-(methyl(pyridin-3-yl)carbamoyl)-6-azaspiro[2.5]octane-6-carboxylate] | – | 0.04 | 0.244 | – |
| CN(C(=O)C1CC12CCN(C(=O)OC(C(F)(F)F)C(F)(F)F)CC2)c1cccnn1 (racemic) [Example 188, 1,1,1,3,3,3-hexafluoropropan-2-yl (+)1-(methyl(pyridazin-3-yl)carbamoyl)-6-azaspiro[2.5]octane-6-carboxylate] | – | 0.12 | 0.249 | 100 |
| O=C(NCc1cccc(C(F)(F)F)n1)C1CC12CCN(C(=O)OC(C(F)(F)F)C(F)(F)F)CC2 (single isomer, unassigned) [Example 75, 1,1,1,3,3,3-hexafluoropropan-2-yl (R or S)-1-(((6-(trifluoromethyl)pyridin-2-yl)methyl)carbamoyl)-6-azaspiro[2.5]octane-6-carboxylate] | – | – | 0.00911 | 100 |
